Data from patent publication US20250353891A1 (MEDIMMUNE LIMITED, priority 2022, published 2025).
Starred links: 1 amine or outer side, 2 acyl side, 3 side chain; linkers in the order of their positions; H or OH if unused. Non-standard residues stand in square brackets, D forms with d. Residues, ends and D or L forms follow the SMILES beside them. Groups on a side chain read outwards from the residue. *: point of attachment. γGlu = O=C(O)[C@H](CCC(=O)[*:2])N[*:1]; Stearoyl = CCCCCCCCCCCCCCCCCC(=O)*; Palmitoyl = CCCCCCCCCCCCCCCC(=O)*; αMeF = C[C@](N)(Cc1ccccc1)C(=O)O; PEG2 = NCCOCCOCCC(=O)O; Aib = CC(C)(N)C(=O)O

Tests used:
[1] = Mouse acute food intake study; assay type: in vivo; details: male C57Bl/6 mice, s.c., dose 10 nmol/kg, cumulative food intake at 24 hr vs vehicle
Description: Male C57Bl/6 mice obtained from Jackson Laboratories or Charles River at 8-9 weeks of age and were housed one per cage in BioDaq (Research Diets) cages. Mice were placed on Alpha Dri bedding, standard chow diet (Envigo, 2018) and given water pouches. Mice were allowed to acclimate for 1-2 weeks. Body weight was measured to ensure appropriate acclimation. After acclimation, mice were sham dosed a minimum of 2 times prior to initiation of food intake study. On study day, mice were placed in clean cage bottoms, weighed, and fasted for 6-8 hours. Mice were sorted into groups based on average 24-hour food intake data and body weight. 1-2 hours prior to lights out, mice were dosed subcutaneously with one vehicle or test peptide dissolved in an appropriate vehicle at 5 mL/kg. Mice were left undisturbed and allowed access to food and water for 48 hours. Automated food intake was monitored in the BioDaq system was monitored during this time. Discrete food intake data was exported into MS Excel from which cumulative food intake data was generated and analyzed.

[2] = biological target: human GLP-1 receptor (hGLP-1R) (Homo sapiens, UniProt P43220); assay: cAMP production (HTRF) in CHO cells expressing hGLP-1R; assay type: cell-based; parameters: expressed in transfected cells; details: Table 6; % GLP-1R activity relative to GLP-1 / % GlucR activity relative to glucagon
Summary of the method: (§1)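 Read-out: HTRF cAMP (anti-cAMP cryptate donor, cAMP-d2 acceptor in conjugate/lysis buffer), converted to % Delta F and fitted by 4-parameter logistic for EC50. Cell densities were 1×10^5 cells/mL (hGLP-1R) or 2×10^5 cells/mL (hGCGR). Stimulation lasted 30 min at room temperature.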

[3] = biological target: human glucagon receptor (hGCGR) (Homo sapiens, UniProt P47871); assay: cAMP production (HTRF) in CHO cells expressing hGCGR; assay type: cell-based; parameters: expressed in transfected cells; details: Table 6, peptides modified at position 17; cAMP in CHO hGCGR cells; geometric mean; read-out: hGluc-R EC50
Summary of the method: as §1

human GLP-1 receptor (hGLP-1R), sequence (P43220 24-463): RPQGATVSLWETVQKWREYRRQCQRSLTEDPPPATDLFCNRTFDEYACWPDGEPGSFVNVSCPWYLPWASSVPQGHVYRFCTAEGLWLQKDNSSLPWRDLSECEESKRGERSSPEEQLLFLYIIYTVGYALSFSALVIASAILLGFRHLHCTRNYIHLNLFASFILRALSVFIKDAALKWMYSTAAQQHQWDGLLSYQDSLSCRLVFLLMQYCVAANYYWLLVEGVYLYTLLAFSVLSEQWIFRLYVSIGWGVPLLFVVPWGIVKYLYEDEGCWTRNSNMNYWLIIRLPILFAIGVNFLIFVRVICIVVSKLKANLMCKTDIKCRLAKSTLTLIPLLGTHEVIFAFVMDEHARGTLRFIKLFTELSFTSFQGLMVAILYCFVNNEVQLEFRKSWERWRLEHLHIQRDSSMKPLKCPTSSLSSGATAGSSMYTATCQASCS
human glucagon receptor (hGCGR), sequence (P47871 26-477): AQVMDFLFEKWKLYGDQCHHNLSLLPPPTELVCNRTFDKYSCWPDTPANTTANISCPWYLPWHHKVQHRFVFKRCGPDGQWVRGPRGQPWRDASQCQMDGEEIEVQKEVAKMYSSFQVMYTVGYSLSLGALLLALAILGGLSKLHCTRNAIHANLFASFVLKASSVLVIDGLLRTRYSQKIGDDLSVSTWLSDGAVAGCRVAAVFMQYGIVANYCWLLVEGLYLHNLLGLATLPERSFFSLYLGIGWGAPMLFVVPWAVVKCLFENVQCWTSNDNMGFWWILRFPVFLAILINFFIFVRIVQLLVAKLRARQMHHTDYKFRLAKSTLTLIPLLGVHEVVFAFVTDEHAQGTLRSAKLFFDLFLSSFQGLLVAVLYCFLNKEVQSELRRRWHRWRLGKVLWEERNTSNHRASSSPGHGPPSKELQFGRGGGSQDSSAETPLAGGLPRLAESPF

SMILES | 24 hr % Vehicle Food Intake [1] | % Relative Potency Ratio [2] | EC50 [3]
CCCCCCCCCCCCCCCC(=O)N[C@@H](CCC(=O)N[C@@H](CCC(=O)NCCOCCOCCC(=O)NCCOCCOCCC(=O)NCCCC[C@H](NC(=O)[C@H](CO)NC(=O)[C@H](CC(=O)O)NC(=O)[C@H](CC(C)C)NC(=O)[C@](C)(Cc1ccccc1)NC(=O)[C@H](CCCCN)NC(=O)[C@H](CO)NC(=O)[C@@H](NC(=O)[C@H](CC(=O)O)NC(=O)[C@H](CO)NC(=O)[C@@H](NC(=O)[C@](C)(Cc1ccccc1)NC(=O)[C@H](CO)NC(=O)CNC(=O)[C@H](CCC(N)=O)NC(=O)C(C)(C)NC(=O)[C@@H](N)Cc1c[nH]cn1)[C@@H](C)O)C(C)C)C(=O)N[C@@H](C)C(=O)N[C@@H](C)C(=O)N[C@@H](CCC(N)=O)C(=O)N[C@@H](CC(=O)O)C(=O)N[C@@](C)(Cc1ccccc1)C(=O)N[C@H](C(=O)N[C@@H](CCC(N)=O)C(=O)NC(C)(C)C(=O)N[C@H](C(=O)N[C@@H](C)C(=O)N[C@@H](CC(N)=O)C(N)=O)[C@@H](C)CC)C(C)C)C(=O)O)C(=O)O [Peptide 73] (H-H[Aib]QGS[αMeF]TSDVSK[αMeF]LDSK([PEG2-PEG2-γGlu-γGlu-Palmitoyl])AAQD[αMeF]VQ[Aib]IAN-NH2; N-terminus assumed) | 63.4% | 157.9 | 22 pM
CCCCCCCCCCCCCCCCCC(=O)N[C@@H](CCC(=O)N[C@@H](CCC(=O)NCCOCCOCCC(=O)NCCOCCOCCC(=O)NCCCC[C@H](NC(=O)[C@H](CO)NC(=O)[C@H](CC(=O)O)NC(=O)[C@H](CC(C)C)NC(=O)C(C)(C)NC(=O)[C@H](CCCCN)NC(=O)[C@H](CO)NC(=O)[C@@H](NC(=O)[C@H](CC(=O)O)NC(=O)[C@H](CO)NC(=O)[C@@H](NC(=O)[C@](C)(Cc1ccccc1)NC(=O)[C@H](CO)NC(=O)CNC(=O)[C@H](CCC(N)=O)NC(=O)[C@H](CO)NC(=O)[C@@H](N)Cc1c[nH]cn1)[C@@H](C)O)C(C)C)C(=O)N[C@@H](C)C(=O)N[C@@H](C)C(=O)N[C@@H](CCC(N)=O)C(=O)N[C@@H](CC(=O)O)C(=O)N[C@@](C)(Cc1ccccc1)C(=O)N[C@H](C(=O)N[C@@H](CCC(N)=O)C(=O)NC(C)(C)C(=O)N[C@@H](CC(C)C)C(=O)N[C@@H](CCC(=O)O)C(=O)N[C@@H](C)C(=O)NCC(=O)NCC(N)=O)C(C)C)C(=O)O)C(=O)O [Peptide 96] (H-HSQGS[αMeF]TSDVSK[Aib]LDSK([PEG2-PEG2-γGlu-γGlu-Stearoyl])AAQD[αMeF]VQ[Aib]LEAGG-NH2; N-terminus assumed) | 51.9% | 69.9 | 30.1 pM
CCCCCCCCCCCCCCCCCC(=O)N[C@@H](CCC(=O)N[C@@H](CCC(=O)NCCOCCOCCC(=O)NCCOCCOCCC(=O)NCCCC[C@H](NC(=O)[C@H](CO)NC(=O)[C@H](CC(=O)O)NC(=O)[C@H](CC(C)C)NC(=O)C(C)(C)NC(=O)[C@H](CCCCN)NC(=O)[C@H](CO)NC(=O)[C@@H](NC(=O)[C@H](CC(=O)O)NC(=O)[C@H](CO)NC(=O)[C@@H](NC(=O)[C@](C)(Cc1ccccc1)NC(=O)[C@H](CO)NC(=O)CNC(=O)[C@H](CCC(N)=O)NC(=O)C(C)(C)NC(=O)[C@@H](N)Cc1c[nH]cn1)[C@@H](C)O)C(C)C)C(=O)N[C@@H](CCCNC(=N)N)C(=O)N[C@@H](C)C(=O)N[C@@H](CCC(N)=O)C(=O)N[C@@H](CC(=O)O)C(=O)N[C@@](C)(Cc1ccccc1)C(=O)N[C@H](C(=O)N[C@@H](CCC(N)=O)C(=O)NC(C)(C)C(=O)N[C@H](C(=O)N[C@@H](C)C(=O)N[C@@H](CC(N)=O)C(N)=O)[C@@H](C)CC)C(C)C)C(=O)O)C(=O)O [Peptide 102] (H-H[Aib]QGS[αMeF]TSDVSK[Aib]LDSK([PEG2-PEG2-γGlu-γGlu-Stearoyl])RAQD[αMeF]VQ[Aib]IAN-NH2; N-terminus assumed) | 81.9% | 227.0 | 26.5 pM
